According to patent US20100041642A1, “UREA INHIBITORS OF MAP KINASES” (LOCUS PHARMACEUTICALS, INC., priority 2008, published 2010):

target: p38 (Homo sapiens, UniProt Q16539); assay: Protein Kinase Assay (33P incorporation from γ-[33P]ATP into GST-ATF-2); format: biochemical; settings: 2 nM p38, preincubated 20 min at 30° C.; 10 uM cold ATP, 2 uM GST-ATF2, 70 min; read-out: ACT. (Activity), IC50 category in Protein Kinase Assay
Procedure: Protein Kinase Assay. The protein kinase activity of p38 was determined by measuring the incorporation of ^33P from γ-[^33P]ATP into the GST-ATF-2 substrate, amino acids 19-96 (Upstate, N.Y. USA). The reactions were carried out in a final volume of 50 μL of 24 mM Tris-HCl buffer, pH 7.5, containing 13 mM MgCl2, 12% Glycerol, 2% DMSO, 2 mM DTT, […] of γ-[^33P]ATP (1000 Ci/mmol; 1 Ci=37 GBq) (GE Healthcare, Piscataway, N.J.), 10 uM cold ATP (GE Healthcare, Piscataway, N.J.), and 2 uM GST-ATF2. Compounds were preincubated with 2 nM p38 for 20 min at 30° C.; the reactions were initiated by the addition of GST-ATF2 and ATP and incubated for 70 min at 30° C. before being stopped by the addition of 10 μL of 600 mM phosphoric acid. The phosphorylated substrate was captured on phosphocellulose 96-well plate (Millipore MAPHNOB 10), washed with 100 mM phosphoric acid, and counted in a BeckmenCoulter LS6500 liquid scintillation counter. […] (Activity).

Chain of p38 (Q16539 whole entry, the tested form may be a part): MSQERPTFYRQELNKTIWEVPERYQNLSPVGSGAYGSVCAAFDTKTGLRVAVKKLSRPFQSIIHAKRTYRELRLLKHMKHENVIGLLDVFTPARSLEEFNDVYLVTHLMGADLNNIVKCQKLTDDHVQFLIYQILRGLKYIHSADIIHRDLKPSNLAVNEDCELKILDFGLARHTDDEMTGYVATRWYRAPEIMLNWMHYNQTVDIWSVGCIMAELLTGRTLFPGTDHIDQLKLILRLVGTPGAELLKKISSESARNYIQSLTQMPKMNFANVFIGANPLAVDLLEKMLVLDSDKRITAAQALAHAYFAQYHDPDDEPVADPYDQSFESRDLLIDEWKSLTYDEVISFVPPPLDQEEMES

IC50, < 100 nM:
Cc1ccc(NC(=O)Nc2cc(C(C)(C)C)oc2C(=O)N2CCN(C)C(=O)C2(C)C)cc1-c1ccc(CN2CCOCC2)cn1 [1-(5-tert-butyl-2-(2,2,4-trimethyl-3-oxopiperazine-1-carbonyl)furan-3-yl)-3-(4-methyl-3-(5-(morpholinomethyl)pyridin-2-yl)phenyl)urea]
CCc1ccc(-c2cc(NC(=O)Nc3cc(C(C)(C)C)sc3C(=O)N3CCN(C)C(=O)C3(C)C)ccc2C)cn1 [1-(5-tert-butyl-2-(2,2,4-trimethyl-3-oxopiperazine-1-carbonyl)thiophen-3-yl)-3-(3-(6-ethylpyridin-3-yl)-4-methylphenyl)urea]
CCc1ccc(-c2cc(NC(=O)Nc3cc(C(C)(C)C)sc3C(=O)N3CCN(C)C(=O)C3(C)C)cc(F)c2C)cn1 [1-(5-tert-butyl-2-(2,2,4-trimethyl-3-oxopiperazine-1-carbonyl)thiophen-3-yl)-3-(3-(6-ethylpyridin-3-yl)-5-fluoro-4-methylphenyl)urea]
COc1ccc(-c2cc(NC(=O)Nc3cc(C(C)(C)C)sc3C(=O)N3CCN(C)C(=O)C3(C)C)ccc2C)cn1 [1-(5-tert-butyl-2-(2,2,4-trimethyl-3-oxopiperazine-1-carbonyl)thiophen-3-yl)-3-(3-(6-methoxypyridin-3-yl)-4-methylphenyl)urea]
COc1ccc(-c2cc(NC(=O)Nc3cc(C(C)(C)C)sc3C(=O)N3CCN(C)C(=O)C3(C)C)cc(F)c2C)cn1 [1-(5-tert-butyl-2-(2,2,4-trimethyl-3-oxopiperazine-1-carbonyl)thiophen-3-yl)-3-(3-fluoro-5-(6-methoxypyridin-3-yl)-4-methylphenyl)urea]
Cc1ccc(NC(=O)Nc2cc(C(C)(C)C)sc2C(=O)N2CCN(C)C(=O)C2(C)C)cc1-c1ccc(CN2CCOCC2)nc1 [1-(5-tert-butyl-2-(2,2,4-trimethyl-3-oxopiperazine-1-carbonyl)thiophen-3-yl)-3-(4-methyl-3-(6-(morpholinomethyl)pyridin-3-yl)phenyl)urea]
Cc1ccc(NC(=O)Nc2cc(C(C)(C)C)sc2C(=O)N2CCN(C)C(=O)C2(C)C)cc1-c1ccc(N2CCOCC2)nc1 [1-(5-tert-butyl-2-(2,2,4-trimethyl-3-oxopiperazine-1-carbonyl)thiophen-3-yl)-3-(4-methyl-3-(6-morpholinopyridin-3-yl)phenyl)urea]
Cc1ccc(NC(=O)Nc2cc(C(C)(C)C)oc2C(=O)N2CCNC(=O)C2(C)C)cc1-c1ccc(OCCN(C)C)nc1 [1-(5-tert-butyl-2-(2,2-dimethyl-3-oxopiperazine-1-carbonyl)furan-3-yl)-3-(3-(6-(2-(dimethylamino)ethoxy)pyridin-3-yl)-4-methylphenyl)urea]
Cc1ccc(NC(=O)Nc2cc(C(C)(C)C)sc2C(=O)N2CCNC(=O)C2(C)C)cc1-c1ccc(CN2CCOCC2)nc1 [1-(5-tert-butyl-2-(2,2-dimethyl-3-oxopiperazine-1-carbonyl)thiophen-2-yl)-3-(4-methyl-3-(6-(morpholinomethyl)pyridin-3-yl)phenyl)urea]
Cc1ccc(-c2ccc(N3CCOCC3)cn2)cc1NC(=O)Nc1cc(C(C)(C)C)sc1C(=O)N1CCNC(=O)C1(C)C [1-(5-tert-butyl-2-(2,2-dimethyl-3-oxopiperazine-1-carbonyl)thiophen-3-yl)-3-(2-methyl-5-(5-morpholinopyridin-2-yl)phenyl)urea]
COc1ccc(-c2cc(NC(=O)Nc3cc(C(C)(C)C)sc3C(=O)N3CCNC(=O)C3(C)C)ccc2C)cn1 [1-(5-tert-butyl-2-(2,2-dimethyl-3-oxopiperazine-1-carbonyl)thiophen-3-yl)-3-(3-(6-methoxypyridin-3-yl)-4-methylphenyl)urea]
Cc1cc(NC(=O)Nc2cc(C(C)(C)C)sc2C(=O)N2CCNC(=O)C2(C)C)cc(-c2ccc(N3CCOCC3)cn2)c1 [1-(5-tert-butyl-2-(2,2-dimethyl-3-oxopiperazine-1-carbonyl)thiophen-3-yl)-3-(3-methyl-5-(5-morpholinopyridin-2-yl)phenyl)urea]
Cc1ccc(NC(=O)Nc2cc(C(C)(C)C)sc2C(=O)N2CCNC(=O)C2(C)C)cc1-c1ccc(N2CCOCC2)cn1 [1-(5-tert-butyl-2-(2,2-dimethyl-3-oxopiperazine-1-carbonyl)thiophen-3-yl)-3-(4-methyl-3-(5-morpholinopyridin-2-yl)phenyl)urea]
Cc1ccc(NC(=O)Nc2cc(C(C)(C)C)sc2C(=O)N2CCNC(=O)C2(C)C)cc1-c1ccc(N2CCOCC2)nc1 [1-(5-tert-butyl-2-(2,2-dimethyl-3-oxopiperazine-1-carbonyl)thiophen-3-yl)-3-(4-methyl-3-(6-morpholinopyridin-3-yl)phenyl)urea]
CCN1CCN(C(=O)c2sc(C(C)(C)C)cc2NC(=O)Nc2ccc(C)c(-c3ccc(CN4CCOCC4)nc3)c2)C(C)(C)C1=O [1-(5-tert-butyl-2-(4-ethyl-2,2-dimethyl-3-oxopiperazine-1-carbonyl)thiophen-3-yl)-3-(4-methyl-3-(6-(morpholinomethyl)pyridin-3-yl)phenyl)urea]
Cc1ccc(NC(=O)Nc2cc(C(C)(C)C)sc2C(=O)N2CCN(C(C)C)C(=O)C2(C)C)cc1-c1ccc(CN2CCOCC2)nc1 [1-(5-tert-butyl-2-(4-isopropyl-2,2-dimethyl-3-oxopiperazine-1-carbonyl)thiophen-3-yl)-3-(4-methyl-3-(6-(morpholinomethyl)pyridin-3-yl)phenyl)urea]
Cc1ccc(NC(=O)Nc2cc(C(C)(C)C)sc2C(=O)N2CCN(C)C(=O)C2)cc1-c1ccc(CN2CCOCC2)nc1 [1-(5-tert-butyl-2-(4-methyl-3-oxopiperazine-1-carbonyl)thiophen-3-yl)-3-(4-methyl-3-(6-(morpholinomethyl)pyridin-3-yl)phenyl)urea]
COc1ccc(-c2cc(NC(=O)Nc3sc(C(C)(C)C)cc3C(=O)N3CCN(C)C(=O)C3(C)C)c(F)cc2C)cn1 [1-(5-tert-butyl-3-(2,2,4-trimethyl-3-oxopiperazine-1-carbonyl)thiophen-2-yl)-3-(2-fluoro-5-(6-methoxypyridin-3-yl)-4-methylphenyl)urea]
Cc1ccc(NC(=O)Nc2sc(C(C)(C)C)cc2C(=O)N2CCN(C)C(=O)C2(C)C)cc1-c1cnc(NCC(O)CO)nc1 (centres unmarked) [1-(5-tert-butyl-3-(2,2,4-trimethyl-3-oxopiperazine-1-carbonyl)thiophen-2-yl)-3-(3-(2-(2,3-dihydroxypropylamino)pyrimidin-5-yl)-4-methylphenyl)urea]
CCc1ccc(-c2cc(NC(=O)Nc3sc(C(C)(C)C)cc3C(=O)N3CCN(C)C(=O)C3(C)C)ccc2C)nc1 [1-(5-tert-butyl-3-(2,2,4-trimethyl-3-oxopiperazine-1-carbonyl)thiophen-2-yl)-3-(3-(5-ethylpyridin-2-yl)-4-methylphenyl)urea]
Cc1ccc(NC(=O)Nc2sc(C(C)(C)C)cc2C(=O)N2CCN(C)C(=O)C2(C)C)cc1-c1ccc(C(C)O)nc1 (centres unmarked) [1-(5-tert-butyl-3-(2,2,4-trimethyl-3-oxopiperazine-1-carbonyl)thiophen-2-yl)-3-(3-(6-(1-hydroxyethyl)pyridin-3-yl)-4-methylphenyl)urea]
Cc1ccc(NC(=O)Nc2sc(C(C)(C)C)cc2C(=O)N2CCN(C)C(=O)C2(C)C)cc1-c1ccc(C(C)(C)O)nc1 [1-(5-tert-butyl-3-(2,2,4-trimethyl-3-oxopiperazine-1-carbonyl)thiophen-2-yl)-3-(3-(6-(2-hydroxypropan-2-yl)pyridin-3-yl)-4-methylphenyl)urea]
COCCOc1ccc(-c2cc(NC(=O)Nc3sc(C(C)(C)C)cc3C(=O)N3CCN(C)C(=O)C3(C)C)ccc2C)cn1 [1-(5-tert-butyl-3-(2,2,4-trimethyl-3-oxopiperazine-1-carbonyl)thiophen-2-yl)-3-(3-(6-(2-methoxyethoxy)pyridin-3-yl)-4-methylphenyl)urea]
CCN(CC)Cc1ccc(-c2cc(NC(=O)Nc3sc(C(C)(C)C)cc3C(=O)N3CCN(C)C(=O)C3(C)C)ccc2C)cn1 [1-(5-tert-butyl-3-(2,2,4-trimethyl-3-oxopiperazine-1-carbonyl)thiophen-2-yl)-3-(3-(6-((diethylamino)methyl)pyridin-3-yl)-4-methylphenyl)urea]
CCOc1ccc(-c2cc(NC(=O)Nc3sc(C(C)(C)C)cc3C(=O)N3CCN(C)C(=O)C3(C)C)ccc2C)cn1 [1-(5-tert-butyl-3-(2,2,4-trimethyl-3-oxopiperazine-1-carbonyl)thiophen-2-yl)-3-(3-(6-ethoxypyridin-3-yl)-4-methylphenyl)urea]
CCc1ccc(-c2cc(NC(=O)Nc3sc(C(C)(C)C)cc3C(=O)N3CCN(C)C(=O)C3(C)C)ccc2C)cn1 [1-(5-tert-butyl-3-(2,2,4-trimethyl-3-oxopiperazine-1-carbonyl)thiophen-2-yl)-3-(3-(6-ethylpyridin-3-yl)-4-methylphenyl)urea]
